15 compounds from patent publication US9499538B2, “Estrogen receptor modulators and uses thereof” (Seragon Pharmaceuticals, Inc., priority 2012, dated 2016) can be followed below.

One experiment deals with T1, ER-α in MCF-7 cells (Homo sapiens, UniProt P03372).
T1 construct: endogenous in cells; host or cells: MCF-7
T1 sequence (P03372 1-595): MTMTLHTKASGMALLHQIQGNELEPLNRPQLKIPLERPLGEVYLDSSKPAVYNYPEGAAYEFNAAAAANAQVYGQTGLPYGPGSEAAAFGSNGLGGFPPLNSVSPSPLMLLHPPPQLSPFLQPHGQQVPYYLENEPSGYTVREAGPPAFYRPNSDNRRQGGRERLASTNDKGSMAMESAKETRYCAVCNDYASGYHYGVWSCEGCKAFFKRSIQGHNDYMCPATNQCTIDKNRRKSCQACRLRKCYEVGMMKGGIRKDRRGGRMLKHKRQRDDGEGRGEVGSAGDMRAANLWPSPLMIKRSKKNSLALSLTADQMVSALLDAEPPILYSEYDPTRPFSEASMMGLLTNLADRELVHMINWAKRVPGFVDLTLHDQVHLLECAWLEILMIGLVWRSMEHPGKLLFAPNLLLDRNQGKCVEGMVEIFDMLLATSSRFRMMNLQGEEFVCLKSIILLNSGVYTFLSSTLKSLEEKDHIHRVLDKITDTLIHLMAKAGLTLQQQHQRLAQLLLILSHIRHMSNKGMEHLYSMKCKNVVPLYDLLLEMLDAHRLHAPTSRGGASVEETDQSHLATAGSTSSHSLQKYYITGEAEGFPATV
Briefly: Breast Cancer Cell ER-α In Cell Western Assay (SP1). Type of experiment: cell-based. To be noted: 4 or 24 hr post compound addition; for Emax: MCF7, SP1 antibody, read-out: ER-α In Cell Western Assay (SP1) Max Response; for DC50: SP1 antibody, read-out: ER-α In Cell Western Assay (SP1) IC50. An outline of the steps:
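MCF-7 cells in charcoal-stripped FBS medium, treated with 11-point semilog dilutions (0.3–0.000003 μM final) for 4 or 24 h. Fixed cells immunostained with SP1 antibody (800 nm) and DRAQ5 DNA (700 nm); ER/DNA ratio expressed as % of untreated cells.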

A further experiment concerns MCF-7 cells. Put plainly: Breast Cancer Cell Viability Assays (MCF-7, CellTiter-Glo). The class given is cell-based. To be noted: 5 days' compound exposure; for IC50: Homo sapiens, MCF7, 120 h. Put shortly: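 MCF-7 cells (320/well, RPMI with 10% FBS) exposed for 5 days to an eleven-point semilog series, 0.3–0.000003 μM final. Viability read by CellTiter-Glo luminescence, expressed as background-corrected percent of untreated cells.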
(ATP-based viability assays read luminescence as a measure of living cells.)

Each structure is given as a SMILES string. Some results are limits rather than exact numbers.

For the compound `CC/C(=C(/c1ccc(/C=C/C(=O)O)cc1)c1ccc2[nH]ncc2c1)c1ccc(C(N)=O)cc1F` [Example 211, (E)-3-(4-((E)-2-(4-Carbamoyl-2-fluorophenyl)-1-(1H-indazol-5-yl)but-1-en-1-yl)phenyl)acrylic acid], on ER-α in MCF-7 cells, the Emax is at least 40% and the DC50 is above 0.1 µM. In the experiment on MCF-7 cells, the “MCF7 Viability Assay Max Response” value was “+ (+ = a single % value < 40%)” and the IC50 was above 0.1 µM.
Regarding `O=C(O)/C=C/c1ccc(/C(=C(\c2ccc(F)cc2Cl)C2CCC2)c2coc3c(O)cccc23)cc1` [Example 212, (E)-3-(4-((E)-2-(2-Chloro-4-fluorophenyl)-2-cyclobutyl-1-(7-hydroxybenzofuran-3-yl)vinyl)phenyl)acrylic acid], on ER-α in MCF-7 cells, the Emax was at least 40% and the DC50 is at most 0.1 µM. Also, in the experiment with MCF-7 cells, the “MCF7 Viability Assay Max Response” value is on record as “++ (++ = a single % value ≧ 40%)” and the IC50 was at most 0.1 µM.
As to `O=C(O)/C=C/c1ccc(/C(=C(\c2ccncc2Cl)C2CCC2)c2coc3c(O)cccc23)cc1` [Example 213, (E)-3-(4-((E)-2-(3-Chloropyridin-4-yl)-2-cyclobutyl-1-(7-hydroxybenzofuran-3-yl)vinyl)phenyl)acrylic acid], on ER-α in MCF-7 cells, the Emax is at least 40% and the DC50 is at most 0.1 µM. In addition, in the experiment with MCF-7 cells, the “MCF7 Viability Assay Max Response” value is recorded as “++ (++ = a single % value ≧ 40%)” and the half-maximal inhibitory concentration (IC50) was at most 0.1 µM.
`O=C(O)/C=C/c1ccc(/C(=C(\c2ccnc(O)c2)C2CCC2)c2ccc3[nH]nc(F)c3c2)cc1` [Example 214, (E)-3-(4-((E)-2-Cyclobutyl-1-(3-fluoro-1H-indazol-5-yl)-2-(2-hydroxypyridin-4-yl)vinyl)phenyl)acrylic acid]: at ER-α in MCF-7 cells, the Emax was at least 40% and the DC50 is above 0.1 µM. In the experiment on MCF-7 cells, the “MCF7 Viability Assay Max Response” value was “+ (+ = a single % value < 40%)” and the IC50 was above 0.1 µM.
Regarding `Fc1n[nH]c2ccc(/C(=C(/c3ccccc3)C3CCC3)c3ccc(/C=C/c4ccccn4)cc3)cc12` [Example 215], at ER-α in MCF-7 cells, the Emax was at least 40% and the DC50 is at most 0.1 µM. Further, in the experiment with MCF-7 cells, the “MCF7 Viability Assay Max Response” value is recorded as “++ (++ = a single % value ≧ 40%)” and the IC50 is at most 0.1 µM.
`COc1ccc(/C(=C(\c2ccc(/C=C/C(=O)O)cc2)c2ccc3[nH]ncc3c2)C2CCC2)c(Cl)c1` [Example 216, (E)-3-(4-((E)-2-(2-Chloro-4-methoxyphenyl)-2-cyclobutyl-1-(1H-indazol-5-yl)vinyl)phenyl)acrylic acid]: on ER-α in MCF-7 cells, the Emax was at least 40% and the DC50 was at most 0.1 µM. In addition, in the experiment with MCF-7 cells, the “MCF7 Viability Assay Max Response” value is reported as “++ (++ = a single % value ≧ 40%)” and the IC50 is at most 0.1 µM.
On to `Cc1cc(CO)ccc1/C(=C(\c1ccc(/C=C/C(=O)O)cc1)c1ccc2[nH]nc(F)c2c1)C1CCC1` [Example 217, (E)-3-(4-((E)-2-Cyclobutyl-1-(3-fluoro-1H-indazol-5-yl)-2-(4-(hydroxymethyl)-2-methylphenyl)vinyl)phenyl)acrylic acid], for which, at ER-α in MCF-7 cells, the Emax was at least 40% and the DC50 was at most 0.1 µM. For the same compound, in the experiment with MCF-7 cells, the “MCF7 Viability Assay Max Response” value is recorded as “++ (++ = a single % value ≧ 40%)” and the IC50 is at most 0.1 µM.
Take `N#Cc1ccc(/C(=C(\c2ccc(/C=C/C(=O)O)cc2)c2ccc3scnc3c2)C2CCC2)c(Cl)c1` [Example 218, (E)-3-(4-((E)-1-(Benzo[d]thiazol-5-yl)-2-(2-chloro-4-cyanophenyl)-2-cyclobutylvinyl)phenyl)acrylic acid]: on ER-α in MCF-7 cells, the Emax was at least 40% and the DC50 is at most 0.1 µM. In addition, in the experiment with MCF-7 cells, the “MCF7 Viability Assay Max Response” value was “++ (++ = a single % value ≧ 40%)” and the IC50 was at most 0.1 µM.
As for `N#Cc1cc(Cl)ccc1/C(=C(\c1ccc(/C=C/C(=O)O)cc1)c1ccc2scnc2c1)C1CCC1` [Example 219, (E)-3-(4-((E)-1-(Benzo[d]thiazol-5-yl)-2-(4-chloro-2-cyanophenyl)-2-cyclobutylvinyl)phenyl)acrylic acid], at ER-α in MCF-7 cells, the Emax is at least 40% and the DC50 is at most 0.1 µM. In the experiment with MCF-7 cells, the “MCF7 Viability Assay Max Response” value is given as “++ (++ = a single % value ≧ 40%)” and the IC50 was at most 0.1 µM.
For `O=C(O)/C=C/c1ccc(/C(=C(\c2ccc(Cl)cc2Cl)C2CCC2)c2ccc3nccn3c2)cc1` [Example 220, (E)-3-(4-((E)-2-Cyclobutyl-2-(2,4-dichlorophenyl)-1-(imidazo[1,2-a]pyridin-6-yl)vinyl)phenyl)acrylic acid], on ER-α in MCF-7 cells, the Emax was at least 40% and the DC50 is at most 0.1 µM. In addition, in the experiment on MCF-7 cells, the “MCF7 Viability Assay Max Response” value is “++ (++ = a single % value ≧ 40%)” and the IC50 was at most 0.1 µM.
For the compound `O=C(O)/C=C/c1ccc(/C(=C(\c2ccc(F)cc2C(F)(F)F)C2CCC2)c2ccc3nccn3c2)cc1` [Example 221, (E)-3-(4-((E)-2-Cyclobutyl-2-(4-fluoro-2-(trifluoromethyl)phenyl)-1-(imidazo[1,2-a]pyridin-6-yl)vinyl)phenyl)acrylic acid], on ER-α in MCF-7 cells, the Emax is at least 40% and the DC50 was at most 0.1 µM. Moreover, in the experiment with MCF-7 cells, the “MCF7 Viability Assay Max Response” value is recorded as “++ (++ = a single % value ≧ 40%)” and the IC50 was at most 0.1 µM.
`N#Cc1c(/C(=C(/c2ccc(F)cc2Cl)C2CC2)c2ccc(/C=C/C(=O)O)cc2)ccc2[nH]nc(F)c12` [Example 222, (E)-3-(4-((E)-2-(2-Chloro-4-fluorophenyl)-1-(4-cyano-3-fluoro-1H-indazol-5-yl)-2-cyclopropylvinyl)phenyl)acrylic acid]: at ER-α in MCF-7 cells, the Emax was at least 40% and the DC50 is at most 0.1 µM. Also, in the experiment on MCF-7 cells, the “MCF7 Viability Assay Max Response” value is reported as “++ (++ = a single % value ≧ 40%)” and the IC50 was at most 0.1 µM.
On to `O=C(O)/C=C/c1ccc(/C(=C(\c2ccc(Cl)cc2C(F)(F)F)C2CCC2)c2ccc3nccn3c2)cc1` [Example 223, (E)-3-(4-((E)-2-(4-Chloro-2-(trifluoromethyl)phenyl)-2-cyclobutyl-1-(imidazo[1,2-a]pyridin-6-yl)vinyl)phenyl)acrylic acid], for which, at ER-α in MCF-7 cells, the Emax is at least 40% and the DC50 is at most 0.1 µM. In the experiment on MCF-7 cells, the “MCF7 Viability Assay Max Response” value is “++ (++ = a single % value ≧ 40%)” and the IC50 is at most 0.1 µM.
With `N#Cc1c(/C(=C(/c2ccc(F)cc2Cl)C2CCC2)c2ccc(/C=C/C(=O)O)cc2)ccc2nccn12` [Example 224, (E)-3-(4-((E)-2-(2-Chloro-4-fluorophenyl)-1-(5-cyanoimidazo[1,2-a]pyridin-6-yl)-2-cyclobutylvinyl)phenyl)acrylic acid], at ER-α in MCF-7 cells, the Emax was at least 40% and the DC50 is at most 0.1 µM. Further, in the experiment on MCF-7 cells, the “MCF7 Viability Assay Max Response” value is given as “++ (++ = a single % value ≧ 40%)” and the IC50 was at most 0.1 µM.
In the case of `N#Cc1c(/C(=C(/c2ccc(F)cc2Cl)C2CCC2)c2ccc(/C=C/C(=O)O)cc2)ccc2[nH]nc(F)c12` [Example 225, (E)-3-(4-((E)-2-(2-Chloro-4-fluorophenyl)-1-(4-cyano-3-fluoro-1H-indazol-5-yl)-2-cyclobutylvinyl)phenyl)acrylic acid], on ER-α in MCF-7 cells, the Emax was at least 40% and the DC50 is at most 0.1 µM. Besides, in the experiment on MCF-7 cells, the “MCF7 Viability Assay Max Response” value is reported as “++ (++ = a single % value ≧ 40%)” and the IC50 is at most 0.1 µM.

By IC50 is commonly meant the midpoint of a concentration-inhibition curve. A low value points to higher potency.
